Reference: publication PMC11240139, “Exploring the antitumor potential of novel quinoline derivatives via tubulin polymerization inhibition in breast cancer; design, synthesis and molecular docking” (RSC Advances, 2024)

How the values were obtained:
Format in all cases: cell-based
CCRF-CEM (leukemia) = assay: NCI-60 SRB cytotoxicity screen; conditions: Homo sapiens, single dose 10 μM, read-out: growth inhibition (GI%)
HL-60(TB) (leukemia) = assay: NCI-60 SRB cytotoxicity screen; conditions: Homo sapiens, single dose 10 μM, read-out: growth inhibition (GI%)
K-562 (leukemia) = assay: NCI-60 SRB cytotoxicity screen; conditions: Homo sapiens; K-652 [sic], single dose 10 μM; read-out: growth inhibition (GI%)
[1] = test system: A549/ATCC (non-small cell lung cancer); assay: NCI-60 SRB cytotoxicity screen; conditions: Homo sapiens, single dose 10 μM, read-out: growth inhibition (GI%)
[2] = test system: HOP-62 (non-small cell lung cancer); assay: NCI-60 SRB cytotoxicity screen; conditions: Homo sapiens; HOP-62, single dose 10 μM; read-out: growth inhibition (GI%)
[3] = test system: NCI-H23 (non-small cell lung cancer); assay: NCI-60 SRB cytotoxicity screen; conditions: Homo sapiens; NCI-H23, single dose 10 μM; read-out: growth inhibition (GI%)
[4] = test system: NCI-H322M (non-small cell lung cancer); assay: NCI-60 SRB cytotoxicity screen; conditions: Homo sapiens, single dose 10 μM, read-out: growth inhibition (GI%)
[5] = test system: NCI-H460 (non-small cell lung cancer); assay: NCI-60 SRB cytotoxicity screen; conditions: Homo sapiens; NCI-H460, single dose 10 μM; read-out: growth inhibition (GI%)
[6] = test system: NCI-H522 (non-small cell lung cancer); assay: NCI-60 SRB cytotoxicity screen; conditions: Homo sapiens; NCI-H522, single dose 10 μM; read-out: growth inhibition (GI%)
HCT-15 (colon cancer) = assay: NCI-60 SRB cytotoxicity screen; conditions: Homo sapiens; HCT-15, single dose 10 μM; read-out: growth inhibition (GI%)
SF-268 (CNS cancer) = assay: NCI-60 SRB cytotoxicity screen; conditions: Homo sapiens; SF-268, single dose 10 μM; read-out: growth inhibition (GI%)
SF-539 (CNS cancer) = assay: NCI-60 SRB cytotoxicity screen; conditions: Homo sapiens; SF-539, single dose 10 μM; read-out: growth inhibition (GI%)
SNB-19 (CNS cancer) = assay: NCI-60 SRB cytotoxicity screen; conditions: Homo sapiens; SNB-19, single dose 10 μM; read-out: growth inhibition (GI%)
U251 (CNS cancer) = assay: NCI-60 SRB cytotoxicity screen; conditions: Homo sapiens, U-251; U251, single dose 10 μM; read-out: growth inhibition (GI%)
MDA-MB-435 (melanoma) = assay: NCI-60 SRB cytotoxicity screen; conditions: Homo sapiens, MDA-MB-435, read-out: growth inhibition (GI%);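 further: growth inhibition in percent at a single 10 µM dose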
SK-MEL-2 (melanoma) = assay: NCI-60 SRB cytotoxicity screen; conditions: Homo sapiens; SK-MEL-2, single dose 10 μM; read-out: growth inhibition (GI%)
SK-MEL-5 (melanoma) = assay: NCI-60 SRB cytotoxicity screen; conditions: Homo sapiens; SK-MEL-5, single dose 10 μM; read-out: growth inhibition (GI%)
UACC-62 (melanoma) = assay: NCI-60 SRB cytotoxicity screen; conditions: Homo sapiens; UACC-62, single dose 10 μM; read-out: growth inhibition (GI%)
OVCAR-4 (ovarian cancer) = assay: NCI-60 SRB cytotoxicity screen; conditions: Homo sapiens; OVCAR-4, single dose 10 μM; read-out: growth inhibition (GI%)
OVCAR-5 (ovarian cancer) = assay: NCI-60 SRB cytotoxicity screen; conditions: Homo sapiens; OVCAR-5, single dose 10 μM; read-out: growth inhibition (GI%)
OVCAR-8 (ovarian cancer) = assay: NCI-60 SRB cytotoxicity screen; conditions: Homo sapiens; OVCAR-8, single dose 10 μM; read-out: growth inhibition (GI%)
SK-OV-3 (ovarian cancer) = assay: NCI-60 SRB cytotoxicity screen; conditions: Homo sapiens; SK-OV-3, single dose 10 μM; read-out: growth inhibition (GI%)
ACHN (renal cancer) = assay: NCI-60 SRB cytotoxicity screen; conditions: Homo sapiens, single dose 10 μM, read-out: growth inhibition (GI%)
RXF 393 (renal cancer) = assay: NCI-60 SRB cytotoxicity screen; conditions: Homo sapiens; RXF 393, single dose 10 μM; read-out: growth inhibition (GI%)
UO-31 (renal cancer) = assay: NCI-60 SRB cytotoxicity screen; conditions: Homo sapiens; UO-31, single dose 10 μM; read-out: growth inhibition (GI%)
MCF7 (breast cancer) = assay: NCI-60 SRB cytotoxicity screen; conditions: Homo sapiens; MCF7, single dose 10 μM; read-out: growth inhibition (GI%)
HS 578T (breast cancer) = assay: NCI-60 SRB cytotoxicity screen; conditions: Homo sapiens, single dose 10 μM, read-out: growth inhibition (GI%)
BT-549 (breast cancer) = assay: NCI-60 SRB cytotoxicity screen; conditions: Homo sapiens; BT-549, single dose 10 μM; read-out: growth inhibition (GI%)
T-47D (breast cancer) = assay: NCI-60 SRB cytotoxicity screen; conditions: Homo sapiens, T47D, single dose 10 μM, read-out: growth inhibition (GI%)
[7] = test system: MDA-MB-468 (breast cancer); assay: NCI-60 SRB cytotoxicity screen; conditions: Homo sapiens; MDA-MB-468, single dose 10 μM; read-out: growth inhibition (GI%)
Method in brief: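 NCI-60 single-dose (10^−5 M) screen in MDA-MB-468 with SRB protein-stain read-out after 48 h exposure; cells TCA-fixed and absorbance read at 540 nm. Reported as GI%, with compounds meeting NCI activity criteria then run at five doses (0.01–100 μM).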

[8] = test system: 60 cancer cell lines (NCI); assay: NCI-60 single-dose screen, overall verdict over the panel; conditions: single dose 10 μM, whole panel
Method in brief: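 Compounds were tested at a single 10^−5 M dose across the NCI 60 cell line panel, with cells preincubated 24 h before treatment. Viability was measured by TCA fixation and sulforhodamine B staining, absorbance 540 nm. % cytotoxicity = [1 − (sample/negative control absorbance)] × 100.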

Row | SMILES | inhibition at 10 µM (CCRF-CEM (leukemia)) | inhibition at 10 µM (HL-60(TB) (leukemia)) | inhibition at 10 µM (K-562 (leukemia)) | inhibition at 10 µM [1] | inhibition at 10 µM [2] | inhibition at 10 µM [3] | inhibition at 10 µM [4] | inhibition at 10 µM [5] | inhibition at 10 µM [6] | inhibition at 10 µM (HCT-15 (colon cancer)) | inhibition at 10 µM (SF-268 (CNS cancer)) | inhibition at 10 µM (SF-539 (CNS cancer)) | inhibition at 10 µM (SNB-19 (CNS cancer)) | inhibition at 10 µM (U251 (CNS cancer)) | inhibition at 10 µM (MDA-MB-435 (melanoma)) | inhibition at 10 µM (SK-MEL-2 (melanoma)) | inhibition at 10 µM (SK-MEL-5 (melanoma)) | inhibition at 10 µM (UACC-62 (melanoma)) | inhibition at 10 µM (OVCAR-4 (ovarian cancer)) | inhibition at 10 µM (OVCAR-5 (ovarian cancer)) | also measured
1 | CCc1cccc2cc(-c3cc(-c4ccc(OC)c(OC)c4)[nH]c(=O)c3C#N)c(Cl)nc12 [Compound 4b, 4-(2-Chloro-8-ethylquinolin-3-yl)-6-(3,4-dimethoxyphenyl)-2-oxo-1,2-dihydropyridine-3-carbonitrile] | < 10% | < 10% | 20% | < 10% | < 10% | < 10% | < 10% | < 10% | 14.7% | < 10% | 16.1% | < 10% | < 10% | < 10% | < 10% | < 10% | < 10% | < 10% | 14% | < 10% | inhibition at 10 µM (OVCAR-8 (ovarian cancer)): < 10%; inhibition at 10 µM (SK-OV-3 (ovarian cancer)): < 10%; inhibition at 10 µM (ACHN (renal cancer)): < 10%; inhibition at 10 µM (RXF 393 (renal cancer)): 33.8%; inhibition at 10 µM (UO-31 (renal cancer)): < 10%; inhibition at 10 µM (MCF7 (breast cancer)): 11.3%; inhibition at 10 µM (HS 578T (breast cancer)): 10.3%; inhibition at 10 µM (BT-549 (breast cancer)): < 10%; inhibition at 10 µM (T-47D (breast cancer)): 16.6%; inhibition at 10 µM [7]: < 10%; cytotoxic activity over the cell lines (in words) [8]: mild cytotoxic activity
2 | CCc1cccc2cc(C=CC(=O)c3ccc(Br)cc3)c(Cl)nc12 [Compound 3e, 1-(4-Bromophenyl)-3-(2-chloro-8-ethylquinolin-3-yl)prop-2-en-1-one] | < 10% | < 10% | < 10% | < 10% | < 10% | < 10% | < 10% | < 10% | < 10% | < 10% | < 10% | < 10% | < 10% | < 10% | < 10% | < 10% | < 10% | < 10% | < 10% | < 10% | inhibition at 10 µM (OVCAR-8 (ovarian cancer)): < 10%; inhibition at 10 µM (SK-OV-3 (ovarian cancer)): < 10%; inhibition at 10 µM (ACHN (renal cancer)): < 10%; inhibition at 10 µM (RXF 393 (renal cancer)): < 10%; inhibition at 10 µM (UO-31 (renal cancer)): < 10%; inhibition at 10 µM (MCF7 (breast cancer)): < 10%; inhibition at 10 µM (HS 578T (breast cancer)): < 10%; inhibition at 10 µM (BT-549 (breast cancer)): < 10%; inhibition at 10 µM (T-47D (breast cancer)): < 10%; inhibition at 10 µM [7]: < 10%; cytotoxic activity over the cell lines (in words) [8]: low cytotoxic activity
